# Measurements from patent EP1976513B1 (priority 2006, dated 2007).
# Counter-ions that a name gives are not always drawn. Like-named read-outs stand apart in the source and are kept apart here.
# Tests used:
# serotonin transporter = molecular target: T1, serotonin transporter (Rattus norvegicus, UniProt P31652); assay: biochemical; settings: rat synaptosomes, serotonin transporter (SERT)
# T1 construct: synaptosomes isolated in a 0.32M sucrose buffer from a male Wistar rat cortex; from tissue; host or cells: male Wistar rat cortex synaptosomes
# T1 sequence (P31652 whole entry): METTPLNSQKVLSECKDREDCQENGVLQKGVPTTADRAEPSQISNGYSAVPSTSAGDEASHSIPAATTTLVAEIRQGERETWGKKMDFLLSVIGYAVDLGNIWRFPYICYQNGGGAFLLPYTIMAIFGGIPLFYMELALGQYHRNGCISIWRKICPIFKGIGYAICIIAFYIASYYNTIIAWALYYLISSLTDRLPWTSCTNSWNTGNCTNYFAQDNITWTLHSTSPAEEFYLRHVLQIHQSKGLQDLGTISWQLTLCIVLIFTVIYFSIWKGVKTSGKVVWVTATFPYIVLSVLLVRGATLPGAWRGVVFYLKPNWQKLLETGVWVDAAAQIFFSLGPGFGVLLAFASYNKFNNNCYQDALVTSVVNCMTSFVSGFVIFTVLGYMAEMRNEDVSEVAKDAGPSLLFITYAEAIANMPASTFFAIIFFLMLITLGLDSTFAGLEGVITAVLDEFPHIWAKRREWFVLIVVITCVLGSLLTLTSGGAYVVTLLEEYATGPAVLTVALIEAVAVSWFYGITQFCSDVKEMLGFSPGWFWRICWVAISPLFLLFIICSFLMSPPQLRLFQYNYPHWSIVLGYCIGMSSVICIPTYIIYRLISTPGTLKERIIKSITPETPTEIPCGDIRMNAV
# dopamine transporter = molecular target: T2, dopamine transporter (Rattus norvegicus, UniProt P23977); assay: biochemical; settings: rat synaptosomes, dopamine transporter (DAT)
# T2 construct: synaptosomes isolated in a 0.32 M sucrose buffer from a male Wistar rat striatum; from tissue; host or cells: male Wistar rat striatum synaptosomes
# T2 sequence (P23977 whole entry): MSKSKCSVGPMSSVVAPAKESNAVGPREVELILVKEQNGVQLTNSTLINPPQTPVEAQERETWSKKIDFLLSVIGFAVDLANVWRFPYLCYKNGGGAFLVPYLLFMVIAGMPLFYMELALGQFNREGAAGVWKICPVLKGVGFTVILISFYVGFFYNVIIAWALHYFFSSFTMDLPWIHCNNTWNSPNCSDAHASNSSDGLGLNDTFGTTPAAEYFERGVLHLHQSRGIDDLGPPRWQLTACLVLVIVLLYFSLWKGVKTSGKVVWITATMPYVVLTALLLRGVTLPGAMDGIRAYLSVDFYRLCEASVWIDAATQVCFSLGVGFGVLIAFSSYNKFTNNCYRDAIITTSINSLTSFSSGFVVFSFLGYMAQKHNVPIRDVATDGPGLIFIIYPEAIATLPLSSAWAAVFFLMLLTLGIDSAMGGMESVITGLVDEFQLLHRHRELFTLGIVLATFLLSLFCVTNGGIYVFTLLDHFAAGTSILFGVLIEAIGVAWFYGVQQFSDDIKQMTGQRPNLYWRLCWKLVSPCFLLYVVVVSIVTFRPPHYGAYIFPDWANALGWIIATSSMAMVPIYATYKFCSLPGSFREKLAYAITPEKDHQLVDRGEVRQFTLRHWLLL
# [1] = molecular target: T3, norepinephrine transporter (Rattus norvegicus, UniProt Q63380); assay: biochemical; type: biochemical; settings: rat synaptosomes, norepinephrine transporter (NET)
# T3 construct: synaptosomes isolated in a 0.32 M sucrose buffer from a male Wistar rat hypothalamus; from tissue; host or cells: male Wistar rat hypothalamus synaptosomes
# T3 sequence (Q63380 1-617): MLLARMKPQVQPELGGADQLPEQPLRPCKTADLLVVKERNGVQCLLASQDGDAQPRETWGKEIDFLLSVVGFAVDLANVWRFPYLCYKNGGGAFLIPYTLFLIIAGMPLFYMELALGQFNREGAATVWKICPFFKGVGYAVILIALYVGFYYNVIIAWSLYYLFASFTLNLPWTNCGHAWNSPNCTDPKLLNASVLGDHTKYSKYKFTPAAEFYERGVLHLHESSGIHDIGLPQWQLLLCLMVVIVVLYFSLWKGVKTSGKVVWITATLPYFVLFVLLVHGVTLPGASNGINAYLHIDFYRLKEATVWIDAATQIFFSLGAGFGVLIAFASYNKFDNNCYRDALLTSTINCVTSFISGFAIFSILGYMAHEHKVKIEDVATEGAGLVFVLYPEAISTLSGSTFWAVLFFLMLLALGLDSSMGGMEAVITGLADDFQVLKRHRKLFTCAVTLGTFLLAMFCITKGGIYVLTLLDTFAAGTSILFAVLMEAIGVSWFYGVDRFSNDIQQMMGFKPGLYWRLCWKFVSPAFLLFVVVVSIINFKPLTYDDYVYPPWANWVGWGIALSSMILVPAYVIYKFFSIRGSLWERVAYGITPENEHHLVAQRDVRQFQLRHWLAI
# [2] = molecular target: T4, 5-HT Transporter (SERT) Sites in Mouse Brain (Mus musculus, UniProt Q60857); assay: Ex vivo [3H] citalopram binding after oral dosing; design: species or system C57BL/6 mice; settings: for % Transporter Occupancy, SERT: 60 minutes after treatment, vs vehicle; for Mean Specific Binding (dpm) ± S.E.M., SERT: mice sacrificed 60 minutes after treatment, cortex
# T4 construct: Whole brains were removed and cortex and striata dissected out; from tissue; host or cells: C57BL/6 mouse frontal cortex homogenate
# T4 sequence (Q60857 whole entry): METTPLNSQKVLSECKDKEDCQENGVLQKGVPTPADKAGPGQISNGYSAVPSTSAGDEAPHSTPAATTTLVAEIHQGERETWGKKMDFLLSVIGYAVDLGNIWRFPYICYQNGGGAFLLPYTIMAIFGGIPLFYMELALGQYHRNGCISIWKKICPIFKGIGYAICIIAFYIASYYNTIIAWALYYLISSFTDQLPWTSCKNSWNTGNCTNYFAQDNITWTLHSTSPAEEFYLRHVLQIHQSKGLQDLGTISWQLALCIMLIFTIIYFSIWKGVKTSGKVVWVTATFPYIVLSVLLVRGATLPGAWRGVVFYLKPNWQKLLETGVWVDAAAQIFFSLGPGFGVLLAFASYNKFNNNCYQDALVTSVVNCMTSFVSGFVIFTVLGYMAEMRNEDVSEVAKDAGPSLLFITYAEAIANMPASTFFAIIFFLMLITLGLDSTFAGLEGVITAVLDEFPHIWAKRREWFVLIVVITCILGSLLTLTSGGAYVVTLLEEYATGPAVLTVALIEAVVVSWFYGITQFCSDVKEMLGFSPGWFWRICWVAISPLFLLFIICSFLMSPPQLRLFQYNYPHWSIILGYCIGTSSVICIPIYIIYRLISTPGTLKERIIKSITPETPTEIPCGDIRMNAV
# [3] = molecular target: T5, DA Transporter (DAT) Sites in Mouse Brain (Mus musculus, UniProt Q61327); assay: Ex vivo [3H] WIN 35428 binding after oral dosing; design: species or system C57BL/6 mice; settings: for % Transporter Occupancy, DAT: 60 minutes after treatment, vs vehicle; for Mean Specific Binding (dpm) ± S.E.M., DAT: mice sacrificed 60 minutes after treatment, striatum
# T5 construct: Striatum was used to determine occupancy of DA transporter sites; from tissue; host or cells: C57BL/6 mouse striatum homogenate
# T5 sequence (Q61327 whole entry): as the sequence (P23977 whole entry) above, with S21P, A57V, A194S, H600R, L619V counted along it
# Rats [4] = assay: Rat forced swim test; type: in vivo; settings: PO, 24 hours and 30-60 minutes before the 5 minute test
# mice [5] = assay: Mouse tail suspension test; type: in vivo; settings: PO, 30-60 minutes before the test, 5 minutes recording
# mice [6] = assay: Mouse locomotor activity; type: in vivo; settings: PO
# Procedure, shortened: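 Animals pretreated with vehicle or compound, then placed individually in photocell cages. Horizontal and vertical activity recorded in 5-min bins for up to 60 min. Analysed by one-way ANOVA with post-hoc tests.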
# Rats [7] = assay: Rat locomotor activity; type: in vivo; settings: PO
# Description: In order to ensure effects of the compounds on immobility time were not related to a general stimulant effect on baseline motor activity, locomotor activity was assessed using photocell monitored cages (Med-Associates Inc.). Each test chamber was equipped with infrared photocell beams to measure movement of the animals. Horizontal and vertical activity were measured
# Rats or mice were pretreated with vehicle or test compounds and placed back in home cage, following which they will be individually placed in locomotor cages and activity was monitored in 5 minute intervals for up to 60 min.
# Data were analyzed by one way analysis of variance (ANOVA) followed by post-hoc comparisons where appropriate. An effect was considered significant if p < 0.05. Data are represented as the mean and standard error to the mean (s.e.m).
# [8] = molecular target: Norepinephrine Transporter (NET) Sites in Mouse Brain (Mus musculus, UniProt O55192); settings: PO; for % Transporter Occupancy, NET: 60 minutes after treatment, vs vehicle; for Mean Specific Binding (dpm) ± S.E.M., NET: mice sacrificed 60 minutes after treatment, cortex
# Chain of Norepinephrine Transporter (NET) Sites in Mouse Brain (O55192 whole entry): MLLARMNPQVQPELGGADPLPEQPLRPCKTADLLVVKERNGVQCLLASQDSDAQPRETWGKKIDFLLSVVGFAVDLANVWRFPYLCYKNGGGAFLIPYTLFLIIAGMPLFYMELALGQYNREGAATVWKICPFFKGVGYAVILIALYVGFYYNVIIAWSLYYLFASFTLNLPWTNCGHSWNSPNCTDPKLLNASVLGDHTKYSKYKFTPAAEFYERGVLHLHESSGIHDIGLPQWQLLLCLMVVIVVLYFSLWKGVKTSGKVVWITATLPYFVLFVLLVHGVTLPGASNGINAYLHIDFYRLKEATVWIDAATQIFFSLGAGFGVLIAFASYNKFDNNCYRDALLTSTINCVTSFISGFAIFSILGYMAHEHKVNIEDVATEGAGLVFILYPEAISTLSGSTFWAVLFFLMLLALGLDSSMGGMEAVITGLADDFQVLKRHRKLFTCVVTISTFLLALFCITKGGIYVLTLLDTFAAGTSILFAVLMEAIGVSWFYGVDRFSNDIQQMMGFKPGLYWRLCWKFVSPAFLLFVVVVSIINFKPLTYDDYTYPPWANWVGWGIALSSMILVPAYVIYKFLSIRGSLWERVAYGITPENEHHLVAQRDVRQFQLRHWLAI
# [9] = literature; cited from earlier work
# serotonin uptake sites = serotonin uptake sites (Homo sapiens, UniProt P31645); settings: compared with the racemic compound; U.S. Patent No. 6,372,919; cited from earlier work
# [10] = molecular target: human serotonin reuptake transporter (Homo sapiens, UniProt P31645); assay: cell-based; settings: recombinant human serotonin transporter (SERT)
# Chain of human serotonin reuptake transporter (P31645 whole entry): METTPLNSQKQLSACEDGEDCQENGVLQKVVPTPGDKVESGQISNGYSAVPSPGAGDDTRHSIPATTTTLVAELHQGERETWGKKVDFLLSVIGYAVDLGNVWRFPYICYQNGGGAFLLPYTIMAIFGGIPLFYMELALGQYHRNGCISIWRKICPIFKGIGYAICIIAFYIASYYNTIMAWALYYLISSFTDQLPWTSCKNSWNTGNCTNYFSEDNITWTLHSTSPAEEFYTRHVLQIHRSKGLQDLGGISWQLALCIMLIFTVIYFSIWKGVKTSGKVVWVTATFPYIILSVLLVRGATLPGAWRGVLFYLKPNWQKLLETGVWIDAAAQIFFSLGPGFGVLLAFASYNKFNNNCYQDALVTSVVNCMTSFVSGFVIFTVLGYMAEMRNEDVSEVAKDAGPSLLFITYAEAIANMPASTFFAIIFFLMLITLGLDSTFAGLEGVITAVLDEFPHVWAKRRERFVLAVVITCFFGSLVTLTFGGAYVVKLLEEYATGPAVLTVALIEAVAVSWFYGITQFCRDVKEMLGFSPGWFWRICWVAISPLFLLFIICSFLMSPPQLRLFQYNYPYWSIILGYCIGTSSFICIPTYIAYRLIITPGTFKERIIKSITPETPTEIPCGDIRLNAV
# [11] = molecular target: T6, human dopamine reuptake transporter (Homo sapiens, UniProt Q01959); assay: cell-based; settings: recombinant human dopamine transporter (DAT); read-out: Human IC50 (nM) hDAT
# T6 construct: expressed in transfected cells; host or cells: CHO-K1 or HEK293
# T6 sequence (Q01959 whole entry): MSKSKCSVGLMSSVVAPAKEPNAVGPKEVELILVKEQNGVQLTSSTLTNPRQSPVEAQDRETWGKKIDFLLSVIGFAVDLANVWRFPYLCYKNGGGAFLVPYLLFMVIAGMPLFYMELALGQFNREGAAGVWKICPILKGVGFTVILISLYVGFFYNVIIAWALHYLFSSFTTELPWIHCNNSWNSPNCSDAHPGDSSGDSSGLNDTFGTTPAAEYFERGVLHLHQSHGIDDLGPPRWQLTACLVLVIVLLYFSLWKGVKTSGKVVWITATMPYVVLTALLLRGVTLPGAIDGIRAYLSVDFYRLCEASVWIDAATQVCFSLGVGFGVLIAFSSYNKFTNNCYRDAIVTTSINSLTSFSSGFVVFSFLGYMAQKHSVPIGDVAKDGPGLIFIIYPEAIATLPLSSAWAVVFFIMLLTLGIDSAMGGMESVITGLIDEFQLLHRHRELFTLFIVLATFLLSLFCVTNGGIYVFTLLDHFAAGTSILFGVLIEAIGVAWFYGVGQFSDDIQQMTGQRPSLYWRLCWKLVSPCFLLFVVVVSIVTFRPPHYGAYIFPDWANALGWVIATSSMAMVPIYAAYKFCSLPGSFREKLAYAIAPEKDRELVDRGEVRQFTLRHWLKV
# [12] = molecular target: human norepinephrine reuptake transporter (Homo sapiens, UniProt P23975); assay: cell-based; settings: recombinant human norepinephrine transporter (NET); read-out: Human IC50 (nM) hNET
# Chain of human norepinephrine reuptake transporter (P23975 whole entry): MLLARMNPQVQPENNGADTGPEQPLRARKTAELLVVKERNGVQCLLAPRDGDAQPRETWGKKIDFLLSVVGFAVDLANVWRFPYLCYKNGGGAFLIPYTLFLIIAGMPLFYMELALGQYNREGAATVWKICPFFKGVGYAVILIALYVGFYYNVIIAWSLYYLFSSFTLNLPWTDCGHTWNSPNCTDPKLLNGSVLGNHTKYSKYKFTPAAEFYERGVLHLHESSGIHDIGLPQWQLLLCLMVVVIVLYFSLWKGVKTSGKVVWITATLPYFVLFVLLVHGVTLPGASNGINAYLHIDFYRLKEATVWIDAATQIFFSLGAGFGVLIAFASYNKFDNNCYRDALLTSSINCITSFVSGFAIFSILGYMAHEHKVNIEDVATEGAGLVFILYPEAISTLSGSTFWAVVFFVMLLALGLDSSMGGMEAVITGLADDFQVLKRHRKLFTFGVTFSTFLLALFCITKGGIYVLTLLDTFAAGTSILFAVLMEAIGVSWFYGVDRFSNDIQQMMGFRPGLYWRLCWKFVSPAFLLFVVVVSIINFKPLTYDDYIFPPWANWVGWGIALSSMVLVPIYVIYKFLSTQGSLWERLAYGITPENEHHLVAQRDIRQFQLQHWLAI
# [13] = read-out: Human IC50 (nM) hSERT
smiles,measurement,setting,value
"CC(N(C)C)C1(c2ccc3ccccc3c2)CCCCC1 (single isomer, unassigned) [56 E1, N,N-dimethyl-1-(1-(naphthalen-2-yl)cyclohexyl)ethanamine]",IC50,serotonin transporter; Rat IC50 (nM) rSERT,2.9 nM
same,IC50,dopamine transporter; Rat IC50 (nM) rDAT,24 nM
same,IC50,[1]; Rat IC50 (nM) rNET,2.3 nM
same,"% Transporter Occupancy, SERT",[2]; 1 mg/kg,19%
same,"Mean Specific Binding (dpm) ± S.E.M., SERT",[2]; 1 mg/kg,2625 ± 138 dpm
same,"% Transporter Occupancy, SERT",[2]; 3 mg/kg,58%
same,"Mean Specific Binding (dpm) ± S.E.M., SERT",[2]; 3 mg/kg,1346 ± 109 dpm
same,"% Transporter Occupancy, SERT",[2]; 10 mg/kg,91%
same,"Mean Specific Binding (dpm) ± S.E.M., SERT",[2]; 10 mg/kg,278 ± 42 dpm
same,"% Transporter Occupancy, SERT",[2]; 30 mg/kg,95%
same,"Mean Specific Binding (dpm) ± S.E.M., SERT",[2]; 30 mg/kg,151 ± 60 dpm
same,"% Transporter Occupancy, DAT",[3]; 1 mg/kg,5%
same,"Mean Specific Binding (dpm) ± S.E.M., DAT",[3]; 1 mg/kg,41561 ± 1611 dpm
same,"% Transporter Occupancy, DAT",[3]; 3 mg/kg,4%
same,"Mean Specific Binding (dpm) ± S.E.M., DAT",[3]; 3 mg/kg,42127 ± 2130 dpm
same,"% Transporter Occupancy, DAT",[3]; 10 mg/kg,23%
same,"Mean Specific Binding (dpm) ± S.E.M., DAT",[3]; 10 mg/kg,33478 ± 1779 dpm
same,"% Transporter Occupancy, DAT",[3]; 30 mg/kg,67%
same,"Mean Specific Binding (dpm) ± S.E.M., DAT",[3]; 30 mg/kg,14637 ± 1567 dpm
same,Rat Forced Swim (Means ± S.E.M.) Climbing,Rats [4]; 3 mg/kg,7.1 ± 1.6
same,Rat Forced Swim (Means ± S.E.M.) Immobility,Rats [4]; 3 mg/kg,52.2 ± 1.6
same,Rat Forced Swim (Means ± S.E.M.) Swimming,Rats [4]; 3 mg/kg,0.3 ± 0.2
same,Rat Forced Swim (Means ± S.E.M.) Climbing,Rats [4]; 10 mg/kg,8.6 ± 0.9
same,Rat Forced Swim (Means ± S.E.M.) Immobility,Rats [4]; 10 mg/kg,50.7 ± 1.0
same,Rat Forced Swim (Means ± S.E.M.) Swimming,Rats [4]; 10 mg/kg,0.8 ± 0.3
same,Rat Forced Swim (Means ± S.E.M.) Climbing,Rats [4]; 30 mg/kg,17.9 ± 2.4
same,Rat Forced Swim (Means ± S.E.M.) Immobility,Rats [4]; 30 mg/kg,40.4 ± 2.7
same,Rat Forced Swim (Means ± S.E.M.) Swimming,Rats [4]; 30 mg/kg,1.0 ± 0.4
same,Mouse Tail Suspension Mean Immobility Time ± S.E.M.,mice [5]; 3 mg/kg,184.0 ± 4.8
same,Mouse Tail Suspension Mean Immobility Time ± S.E.M.,mice [5]; 10 mg/kg,174.8 ± 6.1
same,Mouse Tail Suspension Mean Immobility Time ± S.E.M.,mice [5]; 30 mg/kg,141.9 ± 7.4
same,Mouse Locomotor Activity Total Distance Traveled ± S.E.M.,mice [6]; 3 mg/kg,410.2 ± 89.3
same,Mouse Locomotor Activity Total Distance Traveled ± S.E.M.,mice [6]; 10 mg/kg,440.2 ± 62.6
same,Mouse Locomotor Activity Total Distance Traveled ± S.E.M.,mice [6]; 30 mg/kg,252.2 ± 55.8
same,Rat Locomotor Activity Total Distance Traveled ± S.E.M.,Rats [7]; 3 mg/kg,1227.9 ± 84.4
same,Rat Locomotor Activity Total Distance Traveled ± S.E.M.,Rats [7]; 10 mg/kg,1230.8 ± 64.8
same,Rat Locomotor Activity Total Distance Traveled ± S.E.M.,Rats [7]; 30 mg/kg,1359.8 ± 132.7
same,"% Transporter Occupancy, NET",[8]; 1 mg/kg,20%
same,"Mean Specific Binding (dpm) ± S.E.M., NET",[8]; 1 mg/kg,616 ± 50 dpm
same,"% Transporter Occupancy, NET",[8]; 3 mg/kg,52%
same,"Mean Specific Binding (dpm) ± S.E.M., NET",[8]; 3 mg/kg,368 ± 17 dpm
same,"% Transporter Occupancy, NET",[8]; 10 mg/kg,86%
same,"Mean Specific Binding (dpm) ± S.E.M., NET",[8]; 10 mg/kg,106 ± 20 dpm
same,"% Transporter Occupancy, NET",[8]; 30 mg/kg,98%
same,"Mean Specific Binding (dpm) ± S.E.M., NET",[8]; 30 mg/kg,19 ± 2 dpm
"CC(N(C)C)C1(c2ccc3ccccc3c2)CCCCC1 (single isomer, unassigned) [56 E2, N,N-dimethyl-1-(1-(naphthalen-2-yl)cyclohexyl)ethanamine]",IC50,serotonin transporter; Rat IC50 (nM) rSERT,120 nM
same,IC50,dopamine transporter; Rat IC50 (nM) rDAT,100 nM
same,IC50,[1]; Rat IC50 (nM) rNET,79 nM
"CNC[C@@]1(c2ccc3ccccc3c2)CCCC[C@H]1O (single isomer, unassigned) [147 E1]",IC50,serotonin transporter; read-out: Rat IC50 (nM) rSERT,18 nM
same,IC50,dopamine transporter; read-out: Rat IC50 (nM) rDAT,1200 nM
same,IC50,[1]; read-out: Rat IC50 (nM) rNET,370 nM
"CNC[C@]1(c2ccc3ccccc3c2)CCCC[C@@H]1O (single isomer, unassigned) [147 E2]",IC50,serotonin transporter; read-out: Rat IC50 (nM) rSERT,1700 nM
same,IC50,dopamine transporter; read-out: Rat IC50 (nM) rDAT,1500 nM
same,IC50,[1]; read-out: Rat IC50 (nM) rNET,1200 nM
"CNC[C@@]1(c2ccc3ccccc3c2)CCCC[C@@H]1O (single isomer, unassigned) [148 E2]",IC50,serotonin transporter; read-out: Rat IC50 (nM) rSERT,330 nM
same,IC50,dopamine transporter; read-out: Rat IC50 (nM) rDAT,680 nM
same,IC50,[1]; read-out: Rat IC50 (nM) rNET,4900 nM
"Clc1ccc(C23CNCC2C3)cc1Cl (single isomer, unassigned; (+)) [DOV 21,947, (+)-1-(3,4-dichlorophenyl)-3-azabicyclo[3.1.0]hexane]",immobility in the tail suspension test,[9],dose-dependent reduction in immobility
same,affinity for the serotonin uptake sites,serotonin uptake sites,significantly greater affinity
"NCC1(c2ccc(F)c(F)c2)CCCCC1 [Compound 30, (1-(3,4-difluorophenyl)cyclohexyl)methanamine hydrochloride]",IC50,[10]; [13],4520 nM
same,IC50,[11],5870 nM
same,IC50,[12],> 10000 nM
"NCC1(c2ccccc2)CCCCC1 [Compound 31, (1-phenylcyclohexyl)methaneamine hydrochloride]",IC50,[10]; [13],> 10000 nM
same,IC50,[11],> 10000 nM
same,IC50,[12],> 10000 nM
"NCC1(c2ccc(Cl)cc2Cl)CCCCC1 [Compound 38, (1-(2,4-dichlorophenyl)cyclohexyl)methanamine]",IC50,[10]; Human IC50 (nM) hSERT,472 nM
same,IC50,[11],9650 nM
same,IC50,[12],> 10000 nM
"CNCC1(c2ccccc2)CCCCC1 [Compound 80, N-methyl(1-phenylcyclohexyl)methanamine (hydrochloride)]",IC50,[10]; [13],9170 nM
same,IC50,[11],> 10000 nM
same,IC50,[12],> 10000 nM
"CC1(O)CCC(CN)(c2ccc3ccccc3c2)CC1 (centres unmarked) [Compound 209, 4-(aminomethyl)-1-methyl-4-(naphthalen-2-yl)cyclohexanol]",IC50,[10]; [13],1160 nM
same,IC50,[11],4760 nM
same,IC50,[12],> 10000 nM
"CC1(O)CCC(CN)(c2ccc(OC(F)(F)F)cc2)CC1 (centres unmarked) [Compound 219, 4-(aminomethyl)-1-methyl-4-(4-(trifluoromethoxy)phenyl)-cyclohexanol]",IC50,[10]; [13],269 nM
same,IC50,[11],> 10000 nM
same,IC50,[12],> 10000 nM
"CNCC1(c2ccc3c(c2)OCO3)CCC(O)CC1 (centres unmarked) [Compound 237, 4-(benzo[d][1,3]dioxol-5-yl)-4-((methylamino)methyl)cyclohexanol]",IC50,[10]; [13],7300 nM
same,IC50,[11],9130 nM
same,IC50,[12],> 10000 nM
"CNCC1(c2ccc(OC(F)(F)F)cc2)CCC(O)CC1 (centres unmarked) [Compound 249, 4-((methylamino)methyl)-4-(4-(trifluoromethoxy)phenyl)cyclohexanol]",IC50,[10]; [13],405 nM
same,IC50,[11],> 10000 nM
same,IC50,[12],> 10000 nM
"CN(C)CC1(c2ccc(Cl)c(Cl)c2)CCC(F)(F)CC1 [Compound 269, 1-(1-(3,4-dichlorophenyl)-4,4-difluorocyclohexyl)-N,N-dimethylmethanamine]",IC50,[10]; [13],787 nM
same,IC50,[11],< 1 nM
same,IC50,[12],36 nM
